Values quoted from earlier work, collected in patent US20080292693A1, “COMPOSITION AND METHOD FOR TREATING DIGESTIVE SYSTEM DISORDERS” (priority 2007, published 2008).

Tests used:
Crohn's disease = conditions: double-blind clinical study, daily dose of 1,000 mg

SMILES: C=C(C)[C@H]1CC=C(C)CC1 [d-Limonene]
- symptoms of GERD (GERD; double-blind clinical study, daily dose of 1,000 mg): significantly reduce
- responders free of GERD symptoms (GERD; one GERD study, for up to six months without taking an additional dose): fifty
- symptoms of Crohn's disease (Crohn's disease): significantly reduce
